Laboratory results as given in patent US5169758A (Boehringer Mannheim GmbH, priority 1986, dated 1992).

System: NAD(P)H-dependent, soluble nitrate reductase of the assimilatory type (E.C. 1.6.6.2) from mould fungus
Details: nitrite acts as inhibitor above this concentration

O=NO [nitrite]
Inhibitor concentration (product inhibition): more than 10^-4 M
